These results are taken from US20080242546A1, “Synergistic herbicidal composition containing chloroacetanilides and picolinic acids” (Dow AgroSciences LLC, priority 2007, published 2008).

One assay deals with PAPRH. Description: Field trial in oilseed rape, preemergence weed control, visual rating. Type of assay: in vivo, papaver rhoeas L. The note with it: preemergence to weeds. The protocol:
(§1) E=X+Y-(XY/100), […] Additional field trials were established to evaluate weed control with herbicides applied at an […] timing in oilseed rape, prior to any weed emergence. Each trial was conducted as a randomized complete block design with three replications of each treatment in plots that ranged in size from 2.5×5.o meters to 3.0×6.0 meters. […] The degree of weed control was visually evaluated and recorded at 55 to 68 days after application as a percent of weed control. Percent control is the total injury to the plants due to all factors including: stunting, malformation, chlorosis, necrosis, inhibition of emergence, and other types of plant injury.

The next assay concerns GALAP. The assay is described as above. The class given is in vivo, galium aparine L. The note with it: preemergence to weeds. The method, then: as §1
The test system of the next assay is VIOAR. The assay is described as above. Type of assay: in vivo, viola arvensis L. The note with it: preemergence to weeds. The protocol:
as §1

In another assay the test system is POLCO. Description: Field trial in field corn, early postemergence weed control, visual rating. The note with it: early post. Type of assay: in vivo, polygonum convolvulus L. The protocol:
(§2) Field trials were established to evaluate weed control with herbicides applied at an early postemergence timing in field corn. Each trial was conducted as a randomized complete block design with three replications of each treatment in plots that ranged in size from 2.5×6.5 meters to 3.0×8.0 meters. Herbicide treatments in these trials included: • acetochlor at 1680 g/ha • clopyralid+picloram at 93.5+23.5 g/ha • clopyralid+picloram+aminopyralid at 72+24+12 g/ha • acetochlor+clopyralid+picloram at 1680+93.5+23.5 g/ha • acetochlor+clopyralid+picloram+aminopyralid at 1680+72+24+12 g/ha These herbicide treatments were broadcast sprayed postemergence over 1 to 3 leaf corn and 1 to 2 leaf weeds. The acetochlor formulation being used also contained furilazole safener.
(§3) The degree of weed control was visually evaluated and recorded at 40 to 71 days after application as a percent of weed control. Percent control is the total injury to the plants due to all factors including: stunting, malformation, chlorosis, necrosis, inhibition of emergence, and other types of plant injury. The control ratings range from 0 to 100 percent, where 0 represents no injury and 100 represents complete kill.
(§4) The Colby method represents a direct approach to measuring the synergistic activity of two herbicides.

In a further assay the test system is CHEAL. The description is as above. The class given is in vivo, chenopodium album L. As to conditions: early post. The protocol:
as §2, §3, §4

The subject of a further assay is POLAV. The assay is described as above. The class given is in vivo, polygonum aviculare. As to conditions: early post. The method, then:
as §2, §3, §4

Setting [1] is: 750 g ai/ha, 55 to 68 days after application.
Where [2] appears, read: 1680 g ai/ha, 40 to 71 days after application.

Consider `Cc1cccc(C)c1N(Cn1cccn1)C(=O)CCl` [metazachlor, 2-chloro-N-(2,6-dimethylphenyl)-N-(1H-pyrazol-1-ylmethyl)acetamide], for which the results for the “percent of weed control” value in the assay with PAPRH (setting [1]), with GALAP (setting [1]) and with VIOAR (setting [1]) were 10%, 53% and 0%, respectively. Further, the “control of PAPRH in words (synergistic action / acceptable control)” value in the assay with PAPRH was “did not provide acceptable control”. In addition, the “control of GALAP in words (synergistic action / acceptable control)” value with GALAP is given as “did not provide acceptable control”. Also, in the assay with VIOAR, the “control of VIOAR in words (synergistic action / acceptable control)” value is listed as “did not provide acceptable control”.

`CCOCN(C(=O)CCl)c1c(C)cccc1CC` [acetochlor, 2-chloro-N-(ethoxymethyl)-N-(2-ethyl-6-methylphenyl)acetamide]: the “percent of weed control” value in the assay with POLCO (setting [2]) was 52%; in the assay with POLAV (setting [2]), 58%. For the same compound, in the assay with POLCO, the “control of POLCO in words (synergistic action / acceptable control)” value was “did not provide acceptable control”. In addition, the “control of CHEAL in words (synergistic action / acceptable control)” value in the assay on CHEAL was “did not provide acceptable control”. Besides, the “control of POLAV in words (synergistic action / acceptable control)” value in the assay on POLAV is “did not provide acceptable control”.
